Assay results published in patent US8841321B2, “Quinoline derivatives as antibacterial agents” (Janssen Pharmaceutica NV, priority 2005, dated 2014).
Converted amounts (≈) assume the structure as drawn.

Legend:
[1] = test system: SPN 6305 (Streptococcus pneumoniae (ATCC6305)); experiment: Microtitre plate assay, IC90 determination; type: cell-based; details: for IC90 (μg/ml) SPN 6305: Streptococcus pneumoniae (ATCC6305)
Protocol: (§1) The bacteria used in this study were grown overnight in flasks containing 100 ml Mueller-Hinton Broth (Becton Dickinson—cat. no. 275730) in sterile de-ionized water, with shaking, at 37° C. Stocks (0.5 ml/tube) were stored at −70° C. until use. Bacteria titrations were performed in microtiter plates and colony forming units (CFUs) were determined. In general, an inoculum level of approximately 100 CFUs was used for susceptibility testing.
(§2) Flat-bottom, sterile 96-well plastic microtiter plates were filled with 180 μl of sterile deionized water, supplemented with 0.25% BSA. Subsequently, stock solutions (7.8× final test concentration) of compounds were added in 45 μl volumes in column 2. Serial five-fold dilutions (45 μl in 180 μl) were made directly in the microtiter plates from column 2 to reach column 11. Untreated control samples with (column 1) and without (column 12) inoculum were included in each microtiter plate. Depending on the bacteria type, approximately 10 to 60 CFU per well of bacteria inoculum (100 TCID50), in a volume of 100 μl in 2.8× Mueller-Hinton broth medium, was added to the rows A to H, except column 12. The same volume of broth medium without inoculum was added to column 12 in row A to H. The cultures were incubated at 37° C. for 24 hours under a normal atmosphere (incubator with open air valve and continuous ventilation). At the end of incubation, one day after inoculation, the bacterial growth was quantitated fluorometrically. Therefore resazurin (0.6 mg/ml) was added in a volume of 20 μl to all wells 3 hours after inoculation, and the plates were re-incubated overnight. A change in colour from blue to pink indicated the growth of bacteria. The fluorescence was read in a computer-controlled fluorometer (Cytofluor Biosearch) at an excitation wavelength of 530 nm and an emission wavelength of 590 nm. The % growth inhibition achieved by the compounds was calculated according to standard methods. The IC90 (expressed in μg/ml) was defined as the 90% inhibitory concentration for bacterial growth.

[2] = test system: STA 29213 (Staphylococcus aureus (ATCC29213)); experiment: Microtitre plate assay, IC90 determination; type: cell-based; details: for IC90 (μg/ml) STA 29213: Staphylococcus aureus (ATCC29213)
Protocol: as §1, §2

Compound	IC90 (μg/ml) SPN 6305 [1] [µg/mL]	IC90 (μg/ml) STA 29213 [2] [µg/mL]	IC90 ([2]; Staphylococcus aureus, ATCC29213, Staphylococcus aureus (ATCC29213), read-out: IC90 (μg/ml) STA 29213) [µg/mL]	IC90 ([1]; Streptococcus pneumoniae, ATCC6305, Streptococcus pneumoniae (ATCC6305), read-out: IC90 (μg/ml) SPN 6305) [µg/mL]
COc1nc2ccc(Cl)cc2cc1C(c1ccccc1)C(O)(CCCCN(C)C)c1ccc2ccccc2c1 (racemic) [Compound 79]	2.7 (≈ 5.01 µM)	2.15 (≈ 3.99 µM)		
CCCCN(C)CCCCC(O)(c1ccccc1)C(c1ccccc1)c1cc2cc(Br)ccc2nc1OC (racemic) [Compound 92]	2.29 (≈ 3.98 µM)	11.48 (≈ 19.9 µM)		
COc1nc2ccc(Br)cc2cc1C(c1ccccc1)C(O)(CCCCN1CCC(C)CC1)c1ccc2ccccc2c1 (racemic) [Compound 103]	0.4 (≈ 0.627 µM)	1.8 (≈ 2.82 µM)		
COc1nc2ccc(Br)cc2cc1C(c1ccccc1)C(O)(CCCCN(C)C)CC(C)C (racemic) [Compound 117]	2.29 (≈ 4.46 µM)	9.13 (≈ 17.8 µM)		
COc1nc2ccc(Br)cc2cc1C(c1ccccc1)C(O)(CCCCN(C)C)CC(C)C (racemic) [Compound 118]	5.14 (≈ 10 µM)	8.14 (≈ 15.9 µM)		
COc1nc2ccc(Br)cc2cc1C(c1ccccc1)C(O)(CCCCN(C)C)CCC(C)C (racemic) [Compound 119]	4.19 (≈ 7.94 µM)	18.72 (≈ 35.5 µM)		
COc1nc2ccc(Br)cc2cc1C(c1ccccc1)C(O)(CCCCN(C)C)CCC(C)C (racemic) [Compound 120]	10.53 (≈ 20 µM)	8.36 (≈ 15.8 µM)		
COc1nc2ccc(Br)cc2cc1C(c1ccccc1)C(O)(CCCCN1CCCCC1)CC(C)C (racemic) [Compound 121]	1.96 (≈ 3.54 µM)	8.77 (≈ 15.8 µM)		
CSc1nc2ccc(Br)cc2cc1C(c1ccccc1)C(O)(CCCCN(C)C)c1ccc2ccccc2c1 (single isomer, unassigned) [Compound 3]	60.0 (≈ 100 µM)	60.0 (≈ 100 µM)		
COc1nc2cc(C)ccc2cc1C(c1ccccc1)C(O)(CCCCN(C)C)c1ccc2ccccc2c1 (single isomer, unassigned) [Compound 77]	1.84 (≈ 3.55 µM)	1.84 (≈ 3.55 µM)		
COc1nc2cc(C)ccc2cc1C(c1ccccc1)C(O)(CCCCN(C)C)c1ccc2ccccc2c1 (single isomer, unassigned) [Compound 78]		1.84 (≈ 3.55 µM)		
COc1nc2ccc(Br)cc2cc1C(c1ccccc1)C(O)(CCCCN(C)C(C)C)c1ccccc1 (single isomer, unassigned) [Compound 88]	6.3 (≈ 11.2 µM)	11.2 (≈ 19.9 µM)		
COc1nc2ccc(Br)cc2cc1C(c1ccccc1)C(O)(CCCCN(C)C(C)C)c1ccccc1 (single isomer, unassigned) [Compound 90]	2.51 (≈ 4.47 µM)	2.24 (≈ 3.99 µM)		
COc1nc2ccc(Br)cc2cc1C(c1ccccc1)C(O)(CCCCN1CCN(C)CC1)c1ccc2ccccc2c1 (single isomer, unassigned) [Compound 113]	2.54 (≈ 3.98 µM)	14.3 (≈ 22.4 µM)		
COc1nc2ccc(Br)cc2cc1C(c1ccccc1)C(O)(CCCCN1CCN(C)CC1)CCC1CCCCC1 (single isomer, unassigned) [Compound 125]	4.95 (≈ 7.95 µM)	9.87 (≈ 15.9 µM)		
COc1nc2ccc(Br)cc2cc1C(c1ccccc1)C(O)(CCCCN(C)C)CCc1ccco1 (single isomer, unassigned) [Compound 129]	1.74 (≈ 3.15 µM)	6.19 (≈ 11.2 µM)		
COc1nc2ccc(Br)cc2cc1C(c1ccccc1)C(O)(CCCCN(C)C)CCc1ccco1 (single isomer, unassigned) [Compound 130]	6.19 (≈ 11.2 µM)	8.74 (≈ 15.8 µM)		
COc1nc2ccc(Br)cc2cc1C(c1ccccc1)C(O)(CCCCN1CCN(C)CC1)CCc1cccc2ccccc12 (single isomer, unassigned) [Compound 143]	10.57 (≈ 15.9 µM)	10.57 (≈ 15.9 µM)		
COc1nc2ccc(-c3cccnc3)cc2cc1C(c1ccccc1)C(O)(CCCCN(C)C)c1ccccc1 (stereo not shown) [Compound 43]			21.2 (≈ 39.9 µM)	
COc1nc2ccc(Br)cc2cc1C(c1ccccc1)C(O)(CCCCN(C)Cc1ccccc1)c1ccccc1 (stereo not shown) [Compound 60]	5.4 (≈ 8.86 µM)			
COc1nc2ccc(Br)cc2cc1C(c1ccccc1)C(O)(CCCCN(C)Cc1ccccc1)c1ccccc1 (stereo not shown) [Compound 61]				5.43 (≈ 8.91 µM)

Second part, the compound after the results:

IC90 (μg/ml) SPN 6305 [1] [µg/mL]	IC90 (μg/ml) STA 29213 [2] [µg/mL]	IC90 ([2]; Staphylococcus aureus, ATCC29213, Staphylococcus aureus (ATCC29213), read-out: IC90 (μg/ml) STA 29213) [µg/mL]	IC90 ([1]; Streptococcus pneumoniae, ATCC6305, Streptococcus pneumoniae (ATCC6305), read-out: IC90 (μg/ml) SPN 6305) [µg/mL]	Compound
9.95 (≈ 17.8 µM)	11.16 (≈ 19.9 µM)			COc1nc2ccc(Br)cc2cc1C(c1ccccc1)C(O)(CCCCN1CCCC1)c1ccccc1 (racemic) [Compound 93]
1.81 (≈ 3.16 µM)	4.06 (≈ 7.08 µM)			COc1nc2ccc(Br)cc2cc1C(c1ccccc1)C(O)(CCCCN1CCCCC1)c1ccccc1 (racemic) [Compound 94]
2.28 (≈ 3.98 µM)	10.2 (≈ 17.8 µM)			COc1nc2ccc(Br)cc2cc1C(c1ccccc1)C(O)(CCCCN1CCCCC1)c1ccccc1 (racemic) [Compound 95]
1.91 (≈ 3.16 µM)	1.91 (≈ 3.16 µM)			COc1ccc(C(O)(CCCCN2CCCCC2)C(c2ccccc2)c2cc3cc(Br)ccc3nc2OC)cc1 (racemic) [Compound 97]
2.04 (≈ 3.56 µM)	1.81 (≈ 3.16 µM)			COc1nc2ccc(Br)cc2cc1C(c1ccccc1)C(O)(CCCCN1CCCCC1)c1ccccc1 (single isomer, unassigned) [Compound 98]
2.04 (≈ 3.56 µM)	1.81 (≈ 3.16 µM)			COc1nc2ccc(Br)cc2cc1C(c1ccccc1)C(O)(CCCCN1CCCCC1)c1ccccc1 (single isomer, unassigned) [Compound 99]
11.44 (≈ 19.9 µM)	9.09 (≈ 15.8 µM)			COc1nc2ccc(Br)cc2cc1C(c1ccccc1)C(O)(CCCCN1CCCCC1)c1ccccc1 (single isomer, unassigned) [Compound 100]
9.09 (≈ 15.8 µM)	9.09 (≈ 15.8 µM)			COc1nc2ccc(Br)cc2cc1C(c1ccccc1)C(O)(CCCCN1CCCCC1)c1ccccc1 (single isomer, unassigned) [Compound 101]
2.34 (≈ 3.98 µM)	8.31 (≈ 14.1 µM)			COc1nc2ccc(Br)cc2cc1C(c1ccccc1)C(O)(CCCCN1CCN(C)CC1)c1ccccc1 (single isomer, unassigned) [Compound 108]
5.25 (≈ 8.92 µM)	9.33 (≈ 15.9 µM)			COc1nc2ccc(Br)cc2cc1C(c1ccccc1)C(O)(CCCCN1CCN(C)CC1)c1ccccc1 (single isomer, unassigned) [Compound 109]
4.68 (≈ 7.95 µM)	9.33 (≈ 15.9 µM)			COc1nc2ccc(Br)cc2cc1C(c1ccccc1)C(O)(CCCCN1CCN(C)CC1)c1ccccc1 (single isomer, unassigned) [Compound 110]
2.09 (≈ 3.55 µM)	9.33 (≈ 15.9 µM)			COc1nc2ccc(Br)cc2cc1C(c1ccccc1)C(O)(CCCCN1CCN(C)CC1)c1ccccc1 (single isomer, unassigned) [Compound 111]
7.25 (≈ 12.6 µM)				COc1nc2ccc(Br)cc2cc1C(c1ccccc1)C(O)(CCCCN1CCOCC1)c1ccccc1 (single isomer, unassigned) [Compound 114]
2.29 (≈ 3.98 µM)				COc1nc2ccc(Br)cc2cc1C(c1ccccc1)C(O)(CCCCN1CCOCC1)c1ccccc1 (single isomer, unassigned) [Compound 115]
2.04 (≈ 3.54 µM)	5.76 (≈ 10 µM)			COc1nc2ccc(Br)cc2cc1C(c1ccccc1)C(O)(CCCCN1CCOCC1)c1ccccc1 (single isomer, unassigned) [Compound 116]
1.79 (≈ 3.15 µM)	2.26 (≈ 3.98 µM)			COc1nc2ccc(Br)cc2cc1C(c1ccccc1)C(O)(CCCCN1CCCCC1)CCC(C)C (single isomer, unassigned) [Compound 123]
1.73 (≈ 3.16 µM)	1.73 (≈ 3.16 µM)			COc1nc2ccc(Br)cc2cc1C(c1ccccc1)C(O)(CCCCN(C)C)Cc1ccccc1 (single isomer, unassigned) [Compound 127]
	1.73 (≈ 3.16 µM)			COc1nc2ccc(Br)cc2cc1C(c1ccccc1)C(O)(CCCCN(C)C)Cc1ccccc1 (single isomer, unassigned) [Compound 128]
5.49 (≈ 8.92 µM)	9.76 (≈ 15.9 µM)			COc1nc2ccc(Br)cc2cc1C(c1ccccc1)C(O)(CCCCN1CCCCC1)CCCc1ccccc1 (single isomer, unassigned) [Compound 146]
